These results are taken from US20160368870A1, “OLEFIN SUBSTITUTED OXINDOLES HAVING AMPK ACTIVITY” (BOEHRINGER INGELHEIM INTERNATIONAL GMBH, priority 2013, published 2016).

For data set [1], the target named is T1, AMPK beta 1 (Homo sapiens, UniProt Q13131+Q9Y478).
T1 construct: in-cell-ELISA for phospho-ACC (Acetyl-CoA carboxylase 1) in HepG2 cells (liver); endogenous in cells; host or cells: HepG2
Briefly: in-cell-ELISA for phospho-ACC, Activity beta 1. The data set is classed as cell-based. As to conditions: 2 h, serum free DMEM, percentage activation over vehicle control, cell line not given (HepG2 or C2C12 myotubes). Here is the method: (§1) Activation of AMPK by various compounds were measured using in-cell-ELISA for phospho-ACC (Acetyl-CoA carboxylase 1) in HepG2 cells (liver) and fully differentiated myotubes (C2C12 cells) grown in 96 well plate. Cells were treated with 1 μM of the molecule for 2 h in serum free DMEM media. After methanol fixation, cells were blocked with BSA followed by addition of anti-phospho ACC antibody (Cell Signaling) and HRP conjugated secondary antibody. Absorbance values taken at 450 nm and were normalized with total DNA (Hoechest stain). Results were expressed as percentage activation over vehicle control.
For orientation: In an ELISA, binding on a coated surface is turned into a signal by an enzyme label.

For data set [2], the target named is T2, AMPK beta 2 (Mus musculus, UniProt Q6PAM0+Q8BRK8).
T2 construct: fully differentiated myotubes (C2C12 cells) grown in 96 well plate; endogenous in cells; host or cells: C2C12 myotubes
T2 sequence (Q6PAM0 whole entry): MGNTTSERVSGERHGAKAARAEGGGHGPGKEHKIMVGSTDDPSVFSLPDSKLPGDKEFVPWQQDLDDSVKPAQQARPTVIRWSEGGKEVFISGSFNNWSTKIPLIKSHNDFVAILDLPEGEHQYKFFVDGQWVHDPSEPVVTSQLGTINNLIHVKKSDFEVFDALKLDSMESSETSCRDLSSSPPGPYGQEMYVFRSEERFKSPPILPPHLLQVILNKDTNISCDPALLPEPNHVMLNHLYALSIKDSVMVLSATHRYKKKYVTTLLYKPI
T2 sequence (Q8BRK8 whole entry): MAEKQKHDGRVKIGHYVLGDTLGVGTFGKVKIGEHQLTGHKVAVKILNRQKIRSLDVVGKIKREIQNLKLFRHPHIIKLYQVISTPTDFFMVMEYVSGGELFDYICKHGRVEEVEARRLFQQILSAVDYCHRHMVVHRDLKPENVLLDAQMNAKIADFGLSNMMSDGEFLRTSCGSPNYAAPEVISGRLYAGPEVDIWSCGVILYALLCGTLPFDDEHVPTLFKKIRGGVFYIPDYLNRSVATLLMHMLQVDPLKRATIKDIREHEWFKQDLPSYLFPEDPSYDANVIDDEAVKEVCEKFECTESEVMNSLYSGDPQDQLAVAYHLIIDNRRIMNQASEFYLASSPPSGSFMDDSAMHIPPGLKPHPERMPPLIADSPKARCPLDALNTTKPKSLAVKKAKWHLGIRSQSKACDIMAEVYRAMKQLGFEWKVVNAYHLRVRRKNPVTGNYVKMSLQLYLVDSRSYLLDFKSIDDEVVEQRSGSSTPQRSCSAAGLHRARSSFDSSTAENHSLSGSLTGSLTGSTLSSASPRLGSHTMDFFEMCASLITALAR
T2 sequence (O54950 whole entry partner): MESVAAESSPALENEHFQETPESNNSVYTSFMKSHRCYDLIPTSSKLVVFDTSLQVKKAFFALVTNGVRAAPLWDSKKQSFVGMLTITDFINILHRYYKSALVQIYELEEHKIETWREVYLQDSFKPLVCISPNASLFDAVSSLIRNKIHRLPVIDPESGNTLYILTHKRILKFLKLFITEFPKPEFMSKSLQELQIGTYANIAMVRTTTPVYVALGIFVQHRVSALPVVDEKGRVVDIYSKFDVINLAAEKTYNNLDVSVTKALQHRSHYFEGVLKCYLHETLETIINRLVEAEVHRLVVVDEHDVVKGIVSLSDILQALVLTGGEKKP
The data set can be described thus: in-cell-ELISA for phospho-ACC, Activity beta 2. Type of data set: cell-based. To be noted: 2 h, serum free DMEM, percentage activation over vehicle control, cell line not given (HepG2 or C2C12 myotubes). Here is the method:
as §1

Data set [3] can be described thus: solubility of sodium salt in water. As to conditions: read-out: soluble in water. The data set is classed as physicochemical. Here is the method: To a stirred solution of acid (compound 67, 1 mmol) in EtOH (25v) was added 0.5M NaOH solution (1 mmol) drop-wise at 30° C. followed by 10V of water. After 30 minutes, excess of ethanol was removed under reduced pressure at 35 deg C. and repeatedly distilled with ethanol two or three times until free solid obtained. The solid was further washed with n-Hexane to obtain compound 67 Compound 67 is soluble in 1 mg/mL water.
The protocol for synthesizing compound 67 was followed to prepare compound 68. Compound 68 is also soluble in 1 mg/mL water.

T1 sequence (Q9Y478 whole entry): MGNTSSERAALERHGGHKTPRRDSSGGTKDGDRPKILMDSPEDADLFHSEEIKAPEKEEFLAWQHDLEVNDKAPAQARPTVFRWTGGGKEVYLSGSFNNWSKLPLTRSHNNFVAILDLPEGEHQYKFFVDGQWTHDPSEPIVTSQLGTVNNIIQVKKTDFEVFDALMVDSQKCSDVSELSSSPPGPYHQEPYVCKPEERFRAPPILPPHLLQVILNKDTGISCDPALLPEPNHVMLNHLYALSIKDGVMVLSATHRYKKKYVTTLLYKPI
T1 sequence (Q13131 whole entry): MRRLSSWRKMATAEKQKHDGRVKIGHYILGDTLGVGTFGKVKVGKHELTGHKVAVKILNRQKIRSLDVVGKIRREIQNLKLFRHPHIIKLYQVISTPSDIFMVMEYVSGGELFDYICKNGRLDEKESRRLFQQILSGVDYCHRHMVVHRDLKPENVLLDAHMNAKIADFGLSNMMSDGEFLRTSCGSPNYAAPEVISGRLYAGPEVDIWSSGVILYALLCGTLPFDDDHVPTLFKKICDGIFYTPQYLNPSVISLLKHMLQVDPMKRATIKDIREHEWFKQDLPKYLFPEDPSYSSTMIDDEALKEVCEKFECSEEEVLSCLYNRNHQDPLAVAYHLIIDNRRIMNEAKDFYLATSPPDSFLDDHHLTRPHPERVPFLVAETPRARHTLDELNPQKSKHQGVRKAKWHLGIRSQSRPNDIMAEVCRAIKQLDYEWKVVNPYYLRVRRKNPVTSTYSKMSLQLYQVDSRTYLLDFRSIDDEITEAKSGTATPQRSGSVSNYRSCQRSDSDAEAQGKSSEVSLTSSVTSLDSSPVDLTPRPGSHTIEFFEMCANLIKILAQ
T1 sequence (P54619 whole entry partner): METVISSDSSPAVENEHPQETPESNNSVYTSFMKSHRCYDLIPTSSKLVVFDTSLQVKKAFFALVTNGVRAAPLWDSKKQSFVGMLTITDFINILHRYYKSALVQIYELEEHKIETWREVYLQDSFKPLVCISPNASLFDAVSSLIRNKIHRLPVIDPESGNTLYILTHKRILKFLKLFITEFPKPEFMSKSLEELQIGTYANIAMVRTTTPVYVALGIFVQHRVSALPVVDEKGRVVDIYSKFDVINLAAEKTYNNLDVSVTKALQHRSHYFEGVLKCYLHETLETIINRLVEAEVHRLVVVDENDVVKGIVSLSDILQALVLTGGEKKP

For `COc1ccc(C=C2C(=O)Nc3cc(Cl)c(-c4ccc(-c5ccc(-n6cncn6)cc5)cc4)cc32)cc1CC(=O)O` [Example 51], the activation at 1 µM in data set [1] was more than 40%. For the same molecule, the “Activity beta 2 (at 1 uM)” value in data set [2] is on record as “*** (*** >40)”.

Take `COc1ccc(C=C2C(=O)Nc3cc(Cl)c(-c4ccc(-c5ccccc5O)cc4)cc32)cc1CC(=O)O` [Example 11]: in data set [1], the activation at 1 µM was more than 40%. The “Activity beta 2 (at 1 uM)” value in data set [2] was “*** (*** >40)”.

Regarding `O=C(O)Cc1ccc(/C=C2\C(=O)Nc3cc(Cl)c(-c4ccc(-c5ccc(-n6cncn6)cc5)cc4)cc32)cc1` [Example 68, sodium {4-[(E/Z)-{6-chloro-2-oxo-5-[4′-(1H-1,2,4-triazol-1-yl)biphenyl-4-yl]-1,2-dihydro-3H-indol-3-ylidene}methyl]phenyl}acetate], in data set [1], the activation at 1 µM is more than 40%. In addition, in data set [3], the solubility is not below 1000 µg/mL.

Molecule `O=C(O)Cc1ccc(C=C2C(=O)Nc3cc(Cl)c(-c4ccc(-c5ccc(-n6cncn6)cc5)cc4)cc32)cc1` [Example 53] displayed an activation at 1 µM in data set [1] of more than 40%. In addition, the “Activity beta 2 (at 1 uM)” value in data set [2] is reported as “*** (*** >40)”.

`COc1ccc(/C=C2\C(=O)Nc3cc(Cl)c(-c4ccc(-c5ccc(-n6cncn6)cc5)cc4)cc32)cc1CC(=O)[O-].[Na+]` [Example 67, sodium {5-[(E/Z)-{6-chloro-2-oxo-5-[4′-(1H-1,2,4-triazol-1-yl)biphenyl-4-yl]-1,2-dihydro-3H-indol-3-ylidene}methyl]-2-methoxyphenyl}acetate] came in with an activation at 1 µM in data set [1] of more than 40%. Also, the solubility in data set [3] was not below 1000 µg/mL.

Regarding `Cc1ccc(C=C2C(=O)Nc3cc(Cl)c(-c4ccc(-c5ccc(S(C)(=O)=O)cc5)cc4)cc32)cc1CC(=O)O` [Example 48], the activation at 1 µM in data set [1] is more than 40%. In addition, in data set [2], the “Activity beta 2 (at 1 uM)” value is reported as “*** (*** >40)”.

On to `Cn1cc(C=C2C(=O)Nc3cc(Cl)c(-c4ccc(-c5ccccc5O)cc4)cc32)cc1C(=O)O` [Example 13], for which, in data set [1], the activation at 1 µM was more than 40%. The “Activity beta 2 (at 1 uM)” value in data set [2] is “*** (*** >40)”.

Regarding `COc1ccc(C=C2C(=O)Nc3cc(Cl)c(-c4ccc(-c5ccc(-n6ccnn6)cc5)cc4)cc32)cc1CC(=O)O` [Example 56], the activation at 1 µM in data set [1] was more than 40%. Besides, the “Activity beta 2 (at 1 uM)” value in data set [2] was “*** (*** >40)”.
